Results as given in patent publication US20120083522A1, “MODULATION OF INFLAMMATORY RESPONSES BY FACTOR XI” (Isis Pharmaceuitcals, inc., priority 2009, published 2012).
In the oligonucleotide strings, read from the 5' end, every base follows the letter of its sugar. An asterisk marks phosphorothioate; unmarked linkages are phosphodiester. Other units and linkages are bracketed, terminal groups are in braces. A string of capitals states the bases alone. e = 2'-O-(2-methoxyethyl) (MOE); [5mC] = 5-methylcytosine; d = 2'-deoxy (DNA)

Experiments:
Assay type in all cases: in vivo, Swiss Webb mice
[1] = test system: soluble CD40 ligand (CD40L); assay: Colitis Study D: CD40L levels; settings: for CD40L levels in colon: DSS-treated mice
Protocol: (§1) In a first group of 8 Swiss Webb mice, 10 mg/kg of ISIS 404071 was injected subcutaneously twice a week for 3 weeks. In a second group of 8 Swiss Webb mice, 20 mg/kg of ISIS 404057 was subcutaneously injected twice a week for 3 weeks. In a third control group of 8 Swiss Webb mice, 40 mg/kg of ISISI 404057 was injected subcutaneously twice a week for 3 weeks. Two control groups of 8 mice each were injected with PBS twice a week for 3 weeks. After the oligonucleotide treatment, 4% DSS in water was administered ad libitum for 7 days to all the experimental groups and one PBS control group.
Plasma levels of soluble CD40 ligand (CD40L) are known to be elevated in cases of inflammatory bowel disease (Ludwiczek, O. et al., Int. J. Colorectal Disease. 2003. 18: 142-147) and may be considered a marker of intestinal inflammation. […]

[2] = test system: thrombin-antithrombin (TAT) complexes; assay: Colitis Study D: TAT levels in colon; settings: for TAT levels in colon: DSS-treated mice
Protocol: as §1
Mice with dextran sodium sulfate (DSS)-induced colitis have elevated level of thrombin-antithrombin (TAT) complexes in blood (Anthoni, C. et al., J. Exp. Med. 204: 1595-1601, 2007) that is also observed in patients with ulcerative colitis (Kume, K. et al., Intern Med. 2007. 46: 1323-9). The effect of antisense inhibition of Factor XI on TAT levels in the colon was evaluated (Thrombi-Anti-Thrombin III complex, Siemens Healthcare Diagnostics, Deerfield, Ill.) and the results are presented in Table 30.

[3] = test system: IL-1, IL-6, IL-10, IL-12, IL-17, TNF-α, GATA-3; assay: Colitis Study F: cytokine and GATA-3 mRNA levels in colon; settings: day 7
Protocol: In a first group of 8 Swiss Webb mice, 50 mg/kg of ISIS 404071 was injected subcutaneously twice a week for 3 weeks. Two control groups of 8 mice each were injected with PBS twice a week for 3 weeks. After the oligonucleotide treatment, 4% DSS in water was administered ad libitum for 7 days to the experimental group and one PBS control group. Mice were sacrificed at the end of the study on day 7 after DSS was administered.
The mRNA levels of cytokines IL-1, IL-6, IL-10, IL-12, IL-17 and TNF-α were measured in the colon of the mice groups at the end of the study on day 7 after DSS was administered. Colons were homogenized on ice in PBS supplemented with protease inhibitors (Sigma, St. Louis, Mo.) and extracted with rotation at 4° C. for 1 hour. After removal of insoluble material by centrifugation, colon homogenates were used for the cytokine analysis by multiplex ELISA (Meso Scale Discovery, Gaithersburg, Md.) according to the manufacture's protocol. Cytokine levels in colon extracts were normalized to the protein concentration measured by protein assay kit (BioRad, Hercules, Calif.). The levels of pro-inflammatory cytokines, including Th1 cytokines IL-1 and IL-6, elevated by DSS administration were decreased by treatment with ISIS 404071.

[4] = test system: IFN-γ, IL-10, IL-12, IL-1β, IL-2, IL-4, IL-5, TNF-α, KC; assay: Colitis Study E: cytokine levels in colon (multiplex ELISA); settings: for IFN-γ level in the colon / IL-1β level in the colon / IL-2 level in the colon / IL-4 level in the colon / IL-5 level in the colon / IL-10 level in the colon / IL-12 level in the colon / KC level in the colon / TNF-α level in the colon: DSS-treated mice
Protocol: Two groups 8 Swiss Webb mice were dosed with 40 mg/kg of ISIS 404071 injected subcutaneously twice a week for 3 weeks. Two control groups of 8 Swiss Webb mice were dosed with PBS subcutaneously twice a week for 3 weeks. Both the ASO treated groups and one of the control groups were then given 4% DSS in distilled water for 7 days ad libitum. One of the ASO and DSS treated groups was also given intravenous injections of 20 μg of recombinant human Factor XI protein (Haematologic Technologies Inc.) for 7 consecutive days, starting the day before DSS treatment. Mice were sacrificed at the end of the study on day 7 after DSS was administered.
The cytokine levels of IFN-γ, IL-10, IL-12, IL-1β, IL-2, IL-4, IL-5, TNF-α, and keratinocyte chemoattractant (KC) were measured in the colon of the mice groups at the end of the study on day 7 after DSS was administered. Colons were homogenized on ice in PBS supplemented with protease inhibitors (Sigma, St. Louis, Mo.) and extracted with rotation at 4° C. for 1 hour. After removal of insoluble material by centrifugation, colon homogenates were used for the cytokine analysis by multiplex ELISA (Mouse TH1/TH2 9-Plex Ultra-Sensitive Kit, Meso Scale Discovery, Gaithersburg, Md.) according to the manufacture's protocol. Cytokine levels in colon extracts were normalized to the protein concentration measured by protein assay kit (BioRad, Hercules, Calif.). The levels of pro-inflammatory cytokines, IFN-γ, IL-1β, IL-10, IL-2, IL-5, TNF-α, and KC were elevated by DSS administration, and were decreased by treatment with ISIS 404071.

[5] = test system: DSS-induced colitis model; assay: Colitis Study B: body weight and colon length
Protocol: In a first group of 8 Swiss Webb mice, 20 mg/kg of ISIS 404071 was injected subcutaneously twice a week for 3 weeks. In a second group of 8 Swiss Webb mice, 20 mg/kg of ISIS 404057 was subcutaneously injected twice a week for 3 weeks. In a third control group of 8 Swiss Webb mice, 20 mg/kg of ISISI 421208 was injected subcutaneously twice a week for 3 weeks. Two control groups of 8 mice each were injected with PBS twice a week for 3 weeks. After the oligonucleotide treatment, 4% DSS in water was administered ad libitum for 6 days to all the experimental groups and one PBS control group.
Mice in all groups were weighed at day 0 and daily after administration of DSS. Mice were sacrificed at the end of the study on day 7 after DSS was administered, their livers and colons were harvested for RNA analysis, and their body weights and colon lengths were measured.

[6] = DSS-induced colitis, day 7, 20 mg/kg s.c. twice a week for 3 weeks, percent change compared to the PBS control

TGGTAATCCACTTTCAGAGG (eT*eG*eG*eT*eA*dA*dT*d[5mC]*d[5mC]*dA*d[5mC]*dT*dT*dT*d[5mC]*eA*eG*eA*eG*eG) [ISIS 404071, 5-10-5 MOE gapmer targeting murine Factor XI, target start site 869]
CD40L levels (in words) ([1]; Colitis Study D): decreased
CD40L levels in colon ([1]; 10 mpk): 0.19 ng/mg protein
CD40L levels in colon ([1]; 20 mpk): 0.26 ng/mg protein
CD40L levels in colon ([1]; 40 mpk): 0.39 ng/mg protein
TAT levels in the colon (in words) ([2]; Colitis Study D): decreased in a dose-dependent manner
TAT levels in colon ([2]; 10 mpk): 1.79 ng/mg protein
TAT levels in colon ([2]; 20 mpk): 0.65 ng/mg protein
TAT levels in colon ([2]; 40 mpk): 0.75 ng/mg protein
pro-inflammatory cytokines incl. IL-1 and IL-6 in colon (in words) ([3]; Colitis Study F): decreased
GATA-3 mRNA level in the colon ([3]; DSS-treated mice, 50 mg/kg): 359 % of PBS treated animals
IL-1 mRNA level in the colon ([3]; DSS-treated mice, 50 mg/kg): 1189 % of PBS treated animals
IL-6 mRNA level in the colon ([3]; DSS-treated mice, 50 mg/kg): 1056 % of PBS treated animals
IL-10 mRNA level in the colon ([3]; DSS-treated mice, 50 mg/kg): 202 % of PBS treated animals
IL-12 mRNA level in the colon ([3]; DSS-treated mice, 50 mg/kg): 234 % of PBS treated animals
IL-17 mRNA level in the colon ([3]; DSS-treated mice, 50 mg/kg): 787 % of PBS treated animals
TNF-α mRNA level in the colon ([3]; DSS-treated mice, 50 mg/kg): 1127 % of PBS treated animals
pro-inflammatory cytokine levels in colon: IFN-γ, IL-1β, IL-10, IL-2, IL-5, TNF-α, KC (in words) ([4]; Colitis Study E, day 7): decreased
IFN-γ level in the colon ([4]; day 7, no rFXI): 1.10 pg/mg
IL-1β level in the colon ([4]; day 7, no rFXI): 50 pg/mg
IL-2 level in the colon ([4]; day 7, no rFXI): 0.11 pg/mg
IL-4 level in the colon ([4]; day 7, no rFXI): 0.012 pg/mg
IL-5 level in the colon ([4]; day 7, no rFXI): 0.04 pg/mg
IL-10 level in the colon ([4]; day 7, no rFXI): 4.7 pg/mg
IL-12 level in the colon ([4]; day 7, no rFXI): 64 pg/mg
KC level in the colon ([4]; day 7, no rFXI): 27 pg/mg
TNF-α level in the colon ([4]; day 7, no rFXI): 0.24 pg/mg
IFN-γ level in the colon ([4]; day 7, plus rFXI 20 ug/day): 4.51 pg/mg
IL-1β level in the colon ([4]; day 7, plus rFXI 20 ug/day): 103 pg/mg
IL-2 level in the colon ([4]; day 7, plus rFXI 20 ug/day): 0.28 pg/mg
IL-4 level in the colon ([4]; day 7, plus rFXI 20 ug/day): 0.004 pg/mg
IL-5 level in the colon ([4]; day 7, plus rFXI 20 ug/day): 0.17 pg/mg
IL-10 level in the colon ([4]; day 7, plus rFXI 20 ug/day): 5.8 pg/mg
IL-12 level in the colon ([4]; day 7, plus rFXI 20 ug/day): 96 pg/mg
KC level in the colon ([4]; day 7, plus rFXI 20 ug/day): 62 pg/mg
TNF-α level in the colon ([4]; day 7, plus rFXI 20 ug/day): 0.91 pg/mg
body weight (in words) ([5]; Colitis Study B, FIG. 9): did not have any significant change in body weight
Body weight [5, 6]: −10%
Colon length [5, 6]: −11%
